From patent publication US20060084652A1, “Alkylidene-tetrahydronaphthalene derivatives, process for their production and their use as anti-inflammatory agents” (priority 2004, published 2006) come the findings set out here.

pIC50: −log10 of the molar value.

The subject of assay [1] is secretion of cytokine IL-8 in monocyte cell line THP-1. Description: Inhibition of LPS-triggered IL-8 secretion in THP-1 cells (ELISA). The format is cell-based, human. The protocol: The concentration of the cytokines was determined in the supernatant by means of commercially available ELISA kits.
For assay [2], the target named is T1, glucocorticoid receptor (GR) (Homo sapiens, UniProt P04150).
T1 construct: made in house; host or cells: Sf9 cells infected with recombinant baculovirus (cytosol preparation)
T1 sequence (P04150 1-777): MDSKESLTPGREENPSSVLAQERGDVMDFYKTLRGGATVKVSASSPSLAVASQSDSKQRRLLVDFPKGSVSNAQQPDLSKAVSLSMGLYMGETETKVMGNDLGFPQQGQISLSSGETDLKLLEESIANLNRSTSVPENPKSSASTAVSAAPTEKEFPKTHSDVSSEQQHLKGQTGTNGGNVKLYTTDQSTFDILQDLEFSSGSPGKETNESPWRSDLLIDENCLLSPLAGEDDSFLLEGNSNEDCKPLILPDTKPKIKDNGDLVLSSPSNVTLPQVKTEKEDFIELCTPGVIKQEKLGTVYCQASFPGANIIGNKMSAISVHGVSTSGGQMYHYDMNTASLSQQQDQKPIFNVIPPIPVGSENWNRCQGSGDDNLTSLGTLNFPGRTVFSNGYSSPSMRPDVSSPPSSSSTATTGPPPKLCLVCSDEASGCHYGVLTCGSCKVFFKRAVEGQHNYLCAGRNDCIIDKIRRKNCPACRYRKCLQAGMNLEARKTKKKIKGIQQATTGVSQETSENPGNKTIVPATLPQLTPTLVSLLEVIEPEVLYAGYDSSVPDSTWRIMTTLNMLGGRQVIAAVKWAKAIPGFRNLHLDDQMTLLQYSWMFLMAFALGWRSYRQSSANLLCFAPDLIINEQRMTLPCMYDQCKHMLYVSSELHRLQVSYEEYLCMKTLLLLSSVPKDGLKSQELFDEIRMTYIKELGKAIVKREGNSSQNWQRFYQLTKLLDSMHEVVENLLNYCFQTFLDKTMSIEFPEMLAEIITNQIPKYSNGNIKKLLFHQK
Description: Binding to the glucocorticoid receptor, cytosol preparations of Sf9 cells, [3H]-dexamethasone as reference. As to conditions: recombinant GR. From the text: The binding of substances to the glucocorticoid receptor (GR) and other steroid-hormone receptors (mineral corticoid receptor (MR), progesterone receptor (PR) and androgen receptor (AR)) is examined with the aid of recombinantly produced receptors. Cytosol preparations of Sf9 cells, which had been infected with recombinant baculoviruses that code for the GR, are used for the binding studies. In comparison to the reference substance [^3H]-dexamethasone, the substances show a high affinity to the GR. IC50(GR)=20 nM and IC50(PR)>1 μM were measured for the compound from Example 1, and IC50(GR)=30 nM and IC50(PR)>1 μM were measured for the compound from Example 2.

The term pIC50 denotes −log10 of the IC50, conventionally taken in molar units. Regarding `C/C=C1/C[C@@](O)(C(F)(F)F)[C@H](Nc2cccc3nc(C)ccc23)c2ccc(F)cc21` (relative stereo) [Example 1, (cis, Z)-4-Ethylidene-6-fluoro-1-[(2-methylquinolin-5-yl)amino]-2-(trifluoromethyl)-1,2,3,4-tetrahydronaphthalen-2-ol], the “efficiency relative to [3H]-dexamethasone as a standard” value in assay [1] (IL-8 inhibition, THP-1) amounted to 90%. Besides, the pIC50 in assay [1] (THP-1, supernatant ELISA, read-out: IC50(IL8)) is 8.19; in assay [2], 7.70.

“(cis, Z)-5-{[4-Ethylidene-6-fluoro-2,5-dihydroxy-2-(trifluoromethyl)-1,2,3,4-tetrahydronaphthalen-1-yl]amino}-quinolin-2(1H)-one [Example 2]”: the pIC50 in assay [2] is 7.52.
